We go through 52 compounds from PubChem BioAssay AID1996.

Converted amounts (≈) assume the structure as drawn. Some results are limits rather than exact numbers.

The conditions of this data set: buffer; pH 7.4; 200.0 µM.
In the case of `COc1cc(OC)cc(C(=O)N[C@H](C(=O)OCC(=O)c2ccc(C)c([N+](=O)[O-])c2)C(C)C)c1`, the solubility (kinetic) (commonly solubility judged after dilution from a stock solution rather than from solid) amounted to 28.8 µg/mL (≈ 62.8 µM).
As for `COc1cc2c(cc1OC)CN(C(=O)Cn1ccccc1=O)CC2`, the kinetic solubility was above 49.3 µg/mL.
With `Cc1ccc2nc(NC(=O)CC3Oc4ccccc4NC3=O)sc2c1` (configuration not stated), the solubility (kinetic) is 3.8 µg/mL (≈ 10.8 µM).
`O=C(COC(=O)CCC1CCCC1)Nc1ccc(F)cc1Cl`: the solubility (kinetic) amounted to 3.4 µg/mL (≈ 10.4 µM).
Under `Cc1ccc(S(=O)(=O)CCC(=O)OCc2nnc(-c3ccccc3)o2)cc1` stands above 58 µg/mL; under `O=C1OCCC1Sc1nnc(-c2ccc(Cl)cc2Cl)o1` (configuration not stated), above 49.7 µg/mL.
`Cc1ccc(-n2c(=O)c3ccccc3n(CC(=O)C(C)(C)C)c2=O)cc1` registered a kinetic solubility of 7.7 µg/mL (≈ 22 µM).
Consider `COc1ccccc1NC(=O)N1CCN(C)CC1`, for which the solubility (kinetic) was found to be 30.8 µg/mL (≈ 124 µM). Compared with the last compound, the solubility kinetic is about 4-fold higher.
For `CCn1c(/N=C/c2ccc(OC)cc2O)nc2ccccc21`, the solubility (kinetic) amounted to 15.6 µg/mL (≈ 52.8 µM). Compared with the last compound, the solubility kinetic is about 2-fold lower.
As to `CCOc1ccc(Nc2nc(NCC(=O)O)nc(N)c2[N+](=O)[O-])cc1`, the solubility (kinetic) was above 52.2 µg/mL.
The compound `CC1CCCC(NC(=O)COC(=O)CCC(=O)c2ccc(F)cc2)C1C` (configuration not stated) yielded a kinetic solubility of 11.5 µg/mL (≈ 31.6 µM).
Take `O=C(/C=C/c1ccccc1)Nc1nc(-c2ccncc2)cs1`: the solubility (kinetic) is 0.9 µg/mL (≈ 2.93 µM).
Take `Cc1nc(Cl)c(Cl)n1CCOc1ccccc1`: the solubility (kinetic) is above 40.7 µg/mL.
Compound `O=C(NC(=S)NNC(=O)c1ccco1)c1ccccc1` registered a solubility (kinetic) above 43.4 µg/mL.
To `O=c1onc(-c2ccc(Cl)cc2Cl)n1-c1cccnc1` belongs 19.5 µg/mL (≈ 63.3 µM); to `CC(NC(=O)C(Cc1ccccc1)n1cccc1)c1ccccc1` (configuration not stated), 11.6 µg/mL (≈ 36.4 µM); to `COC(=O)C(c1ccccc1)C1(O)CC(C)N(C)CC1C` (configuration not stated), above 43.7 µg/mL.
As to `COc1ccc(N)cc1S(=O)(=O)Nc1ccccc1Cl`, the kinetic solubility is above 46.9 µg/mL.
For the compound `COCc1cc(C)nc(SCc2ccc(F)cc2)c1C#N`, the solubility (kinetic) is 1.1 µg/mL (≈ 3.64 µM).
With `COc1ccccc1Nc1nc(Cl)nc(Nc2ccccc2OC)n1`, the kinetic solubility was below 0.2 µg/mL.
Consider `CCCc1nnc(NC(=O)CCC(=O)N2CCCCC2)s1`, for which the kinetic solubility is above 46.6 µg/mL.
The compound `O=C(NCCc1ccc(Cl)cc1)c1cccs1` yielded a solubility (kinetic) above 39.9 µg/mL.
`Cc1csc(=Nc2ccccc2)n1CCCN1CCCC1=O` displayed a solubility (kinetic) above 47.3 µg/mL.
`COc1ccc(/C=C(\C#N)C(=O)OCC(=O)NC2CC2)cc1` showed a solubility (kinetic) of 10.1 µg/mL (≈ 33.6 µM).
On to `CCOc1ccc(NC(=O)C2CCN(S(C)(=O)=O)CC2)cc1`, for which the solubility (kinetic) is 20.2 µg/mL (≈ 61.9 µM).
As to `COc1cccc(Nc2ncnc3sccc23)c1`, the kinetic solubility is above 38.6 µg/mL.
On to `NS(=O)(=O)c1ccc(S(=O)(=O)c2ccccc2)nc1`, for which the solubility (kinetic) was above 44.7 µg/mL.
To `Brc1cc(Br)cc(CN2CCSCC2)c1` belongs below 0.8 µg/mL; to `CCOc1ccc(S(=O)(=O)N2CCN(C(=O)c3ccc(C)c(S(=O)(=O)N4CCOCC4)c3)CC2)cc1`, 19.3 µg/mL (≈ 35.9 µM).
In turn, `O=C(Nc1cccc(F)c1)NC1CCCc2ccccc21` (configuration not stated) had a solubility (kinetic) of 2.1 µg/mL (≈ 7.39 µM).
With `O=C(Cc1ccc(Cl)cc1)Nc1ccc(Cl)cn1`, the solubility (kinetic) is 3.1 µg/mL (≈ 11 µM).
Consider `CCc1ccc(OCCNC(=O)c2ccco2)cc1`, for which the kinetic solubility was above 38.9 µg/mL.
Compound `COc1ccc(S(=O)(=O)/C(C#N)=C/Nc2ccccc2F)cc1` showed a solubility (kinetic) of 3.3 µg/mL (≈ 9.93 µM).
To `COc1cc(C(=O)Nc2cc(OC)c(OC)c(OC)c2)ccc1OCc1c(C)noc1C` belongs 2.9 µg/mL (≈ 6.55 µM); to `CC(Cc1ccccc1)N1C(=O)c2ccccc2C1=O` (configuration not stated), 10.6 µg/mL (≈ 40 µM); to `Cc1ccc(C(=O)COc2ncnc3cc(Cl)ccc23)cc1`, 0.4 µg/mL (≈ 1.28 µM).
`O=C(COC(=O)c1ccc(O)cc1)Nc1ccccc1[N+](=O)[O-]` yielded a solubility (kinetic) of 4.3 µg/mL (≈ 13.6 µM).
Take `Cc1ccsc1C(=O)N1CCc2ccccc2C1`: the solubility (kinetic) was above 38.6 µg/mL.
Under `C=CCNC(=O)COC(=O)CCC(=O)c1cccs1` stands above 42.2 µg/mL; under `CC1CCCN(C(=O)Cc2cccc3ccccc23)C1` (configuration not stated), 38.3 µg/mL (≈ 143 µM); under `COc1ccc(N2CCN(C(=S)NCc3ccc(C)cc3)CC2)cc1`, below 0.3 µg/mL.
For `CCS(=O)(=O)N1CCN=C1SCc1ccccc1`, the solubility (kinetic) was above 42.7 µg/mL.
To `COC(=O)c1sc(SC)c(-c2ccon2)c1C` belongs below 0.6 µg/mL; to `O=[N+]([O-])c1cccc2cn[nH]c12`, above 24.5 µg/mL.
Compound `Cc1ccc(NC(=S)NCC(C)CSc2ccc(Cl)cc2)cc1` (configuration not stated) displayed a solubility (kinetic) of 1.1 µg/mL (≈ 3.01 µM).
In turn, `Cc1cccnc1NC(=O)C1CCC1` registered a kinetic solubility of 23.4 µg/mL (≈ 123 µM).
To `COc1ccc(Cl)cc1S(=O)(=O)n1c([N+](=O)[O-])cnc1C` belongs 31.1 µg/mL (≈ 93.7 µM); to `CCNS(=O)(=O)c1ccc(CCC(=O)N2CCC(C)CC2)cc1`, 49 µg/mL (≈ 145 µM).
Under `CCc1ccc(CN(C)C(C)C(=O)NCc2ccccc2)cc1` (configuration not stated) stands 36.5 µg/mL (≈ 118 µM); under `Cc1cc([N+](=O)[O-])ccc1NC(=O)CCC(=O)N1CCCCCC1`, above 50 µg/mL.
`COc1ccccc1NC(=O)N1CCCC1C(=O)NCc1cccs1` (configuration not stated) displayed a kinetic solubility above 53.9 µg/mL.
Take `CSCCC1NC(=O)N(CC(=O)Nc2ccc3c(c2)OCCO3)C1=O` (configuration not stated): the kinetic solubility was above 54.8 µg/mL.
